Consider five compounds from US20210214359A1, “Compounds and Methods for Treating Bacterial Infections” (NEW YORK UNIVERSITY, priority 2018, published 2021).

One data set concerns S. aureus RN4220. In words: growth inhibition assay in liquid culture, potentiation of gentamicin (Gm). The settings on record: compound at 0.375 μg/mL. In kind it is cell-based. The text has this: The compounds of the invention were screened in a growth inhibition assay in liquid culture of nonpathogenic S. aureus RN4220 to directly test whether a hit compound can potentiate the action of gentamicin (Gm) added at ≤10% the minimal inhibitory concentration (MIC). Gentamicin is a ribosome-targeting bactericidal antibiotic induces oxidative stress and is effective against MRSA strains. Although gentamicin is not a first-line antibiotic for monotherapy of staphylococcal infection, it is used in combination with vancomycin or β-lactams to treat serious infections, such as endocarditis.
The MIC results for the remaining compounds of the disclosure are provided in Table 2. % MIC activity of 51-100 is labeled “+”, % MIC activity of 21-50 is labeled “++”, and % MIC activity of ≤20 is labeled “+++”.

Data set [1] relates to vancomycin-resistant RN10659 strain. In words: growth inhibition test in combination with vancomycin. Format: cell-based, S. aureus. As to conditions: for bacterial growth, agent alone: single agent. The protocol: (§1) FIG. 3 illustrates inhibition of culture growth of drug-resistant S. aureus by (A) the compound of Ex. 80 (GO-0001197; labeled as #9077) (30 μM) and 50% MIC of methicillin (Met) in methicillin-resistant USA300 strain; or by (B) the compound of Ex. 80 (30 μM) and 50% MIC of vancomycin (Van) in vancomycin-resistant RN10659 strain.
(§2) Because H2S inhibitors dramatically reduce the effective dose of antibiotics, they may potentiate or augment the activity of antibiotics in the strains that acquired resistance to these antibiotics. The compound of Ex. 80 (GO-0001197) was evaluated with two clinically relevant antibiotics, methicillin and vancomycin, which have different mechanisms of resistance.

Data set [2] has as its system methicillin-resistant USA300 strain. In words: growth inhibition test in combination with methicillin. In kind it is cell-based, S. aureus. As to conditions: for bacterial growth, agent alone: single agent. The protocol:
as §1, §2

For a further data set, the system named is human BJ cell line. In words: IncuCyte Cytotoxicity Assay. In kind it is cell-based. The protocol:
To determine toxicity of the compounds of the disclosure, an IncuCyte™ Cytotoxicity Assay (Essen BioScience) in the human BJ cell line was conducted. Cell cultures were supplemented with a chemical probe which entered the cell and labeled nuclei green fluorescence as cells die and membrane integrity is lost. Nuclei of live cells were labeled with red fluorescence. […] This cytotoxic concentration was over 50-fold higher than the optimal concentration of the compound of Ex. 80 for bacterial growth inhibition in liquid culture in combination with 10% MIC of gentamicin. Therefore, the compounds of the disclosure show low cytotoxicity in human cell lines and present desirable targets for the development of compositions for treating bacterial infections.

For another data set, the system named is HeLa cells. In words: cytotoxicity in HeLa cells using a different assay. In kind it is cell-based.
Data set [3] addresses T1, S. aureus CSE (Staphylococcus aureus, UniProt A0A0H3K724). Nature of the data set: H2S produced by purified CSE in vitro. In kind it is biochemical. The settings on record: read-out: IC50, reduction of enzymatic activity (H2S produced by purified CSE). How it is done:
(§3) The amount of H2S produced by purified CSE was measured in the presence of the compound of Ex. 80 and found strong reduction of enzymatic activity with IC50 about 100 nM (FIG. 2B). This IC50 values are 10- to 400-fold lower than those determined for conventional CSE inhibitors and correlates well with its binding affinity, KD, as determined by MicroScale Thermophoresis (MST) (FIG. 2C).

Data set [4] concerns the target T1, S. aureus CSE. Nature of the data set: binding to CSE by MicroScale Thermophoresis (MST). The protocol: as §3
On the technique in general: MST reads how a fluorescent partner responds to local heating, with and without ligand.

Structures are written as SMILES. pIC50, pKd: −log10 of the molar value.

T1 sequence (A0A0H3K724 entry or part of it): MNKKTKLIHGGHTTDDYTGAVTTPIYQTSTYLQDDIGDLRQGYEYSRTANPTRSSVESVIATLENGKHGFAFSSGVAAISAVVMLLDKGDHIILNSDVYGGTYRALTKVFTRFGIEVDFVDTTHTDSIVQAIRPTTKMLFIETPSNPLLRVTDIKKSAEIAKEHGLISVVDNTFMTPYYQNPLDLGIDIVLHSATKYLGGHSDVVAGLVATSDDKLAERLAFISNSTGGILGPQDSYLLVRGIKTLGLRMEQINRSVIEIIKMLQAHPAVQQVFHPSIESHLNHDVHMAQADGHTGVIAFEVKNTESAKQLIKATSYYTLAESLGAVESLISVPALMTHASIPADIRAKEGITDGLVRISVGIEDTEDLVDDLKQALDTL

For `O=C(O)c1cc(Cn2ccc3ccc(-c4cc5cccc(Cl)c5s4)cc32)[nH]n1` [Example 68, 5-{[6-(7-chloro-1-benzothiophen-2-yl)-1H-indol-1-yl]methyl}-1H-pyrazole-3-carboxylic acid], the “% MIC at 0.375 μg/mL” value with S. aureus RN4220 was 10 (% MIC at 0.375 μg/mL).
In general, pIC50 refers to the negative decadic logarithm of the IC50, by convention in mol/L. `O=C(O)CNC(=O)Cn1ccc2ccc(Br)cc21` [Example 80, (2-(6-bromo-1H-indol-1-yl)acetyl)glycine]: the “bacterial growth in co-treatment with vancomycin” value in data set [1] (Ex. 80 10 μg/mL + vancomycin 2 μg/mL) is reported as “inhibition of bacterial growth”. In data set [1], the “bacterial growth, agent alone” value is listed as “did not affect bacterial growth”. Also, the “bacterial growth in co-treatment with methicillin” value in data set [2] (Ex. 80 10 μg/mL + methicillin 5 μg/mL) is listed as “inhibition of bacterial growth”. Besides, in data set [2], the “bacterial growth, agent alone” value was “did not affect bacterial growth”. Moreover, in the data set on human BJ cell line (human), the “concentration at which more than a half of the cells died” value is 1,250 μM, the “concentration at which practically all cells died” value is listed as 2,500 μM, the “concentration at which the compound becomes toxic to cells (conservative estimation)” value was ~500 µM and the “concentration at which the number of dead cells started to increase” value stood at 625 µM. For the same compound, the “cytotoxic concentration fold higher than optimal concentration for bacterial growth inhibition” value with human BJ cell line (versus liquid culture with 10% MIC of gentamicin) is given as “over 50 fold”. Moreover, the cytotoxic concentration in the data set with HeLa cells was ~400 µM. In addition, the pIC50 on S. aureus CSE [3] was ~7.00.
The term pKd denotes the negative decadic logarithm of the Kd, by convention in mol/L. Low values mean a high Kd, high ones a low Kd. For `C#CCC(N)C(=O)O` (stereo not shown) [PAG, propargylglycine], the pKd at S. aureus CSE [4] was ~4.05. Moreover, the “fold higher KD than Ex. 80” value at S. aureus CSE [4] (MST, CSE) came out at 225 fold.
Consider `COc1cccc(OC)c1C(=O)N[C@@H]1C(=O)N2[C@@H]1SC(C)(C)[C@@H]2C(=O)O` [methicillin, reference compound], for which, in data set [2], the “bacterial growth, agent alone” value is “only slowed down growth”.
On to `CN[C@H](CC(C)C)C(=O)N[C@H]1C(=O)N[C@@H](CC(N)=O)C(=O)N[C@H]2C(=O)N[C@H]3C(=O)N[C@H](C(=O)N[C@H](C(=O)O)c4cc(O)cc(O)c4-c4cc3ccc4O)[C@H](O)c3ccc(c(Cl)c3)Oc3cc2cc(c3O[C@@H]2O[C@H](CO)[C@@H](O)[C@H](O)[C@H]2O[C@H]2C[C@](C)(N)[C@H](O)[C@H](C)O2)Oc2ccc(cc2Cl)[C@H]1O` [vancomycin, reference compound], for which the “bacterial growth, agent alone” value in data set [1] is on record as “only slowed down growth”.
